The results in this text go back to US9663478B2, “Benzotriazine oxides as drugs targeting Mycobacterium tuberculosis” (priority 2011, dated 2017).

Molecules are shown by their SMILES. Converted amounts (≈) assume the structure as drawn. Read-outs that look alike come from different tables or passages of the source.

Holding throughout (assay): microbe, parasite or virus in culture
What all share (type): cell-based, Mycobacterium tuberculosis

The test system of experiment [1] is Mtb strain resistant to Streptomycin ATCC 35820. Conditions: for MIC: Mycobacterium tuberculosis.
For experiment [2], the system named is Mtb strain resistant to P-aminosalicyclic acid ATCC 35821. Particulars: for MIC: Mycobacterium tuberculosis; for MIC, Mtb strain resistant to P-aminosalicyclic acid ATCC 35821: Table 5.
Experiment [3] has as its system Mtb strain resistant to Ethionamide ATCC 35830. Conditions: for MIC: Mycobacterium tuberculosis; for MIC, Mtb strain resistant to Ethionamide ATCC 35830: Table 5.
In experiment [4] the test system is Mtb strain resistant to Ethambutol ATCC 35837. Conditions: for MIC: Mycobacterium tuberculosis, ATCC35837, read-out: MIC, Mtb strain resistant to Ethambutol ATCC 35837; for MIC, Mtb strain resistant to Ethambutol ATCC 35837: Table 5.
Experiment [5] concerns Mtb strain resistant to Isoniazid ATCC 35822. Particulars: for MIC: Mycobacterium tuberculosis.
Experiment [6] deals with Mtb strain resistant to Kanamycin ATCC 35827. Conditions: for MIC: Mycobacterium tuberculosis.
Setting [7] is: ATCC35820, 168 h, read-out: MIC, Mtb strain resistant to Streptomycin ATCC 35820.
Setting [8] is: ATCC35821, read-out: MIC, Mtb strain resistant to P-aminosalicyclic acid ATCC 35821.
Where [9] appears, read: ATCC35830, read-out: MIC, Mtb strain resistant to Ethionamide ATCC 35830.
The mark [10] stands for this setting: ATCC35822, 168 h, read-out: MIC, Mtb strain resistant to Isoniazid ATCC 35822.
Setting [11] is: ATCC35827, 168 h, read-out: MIC, Mtb strain resistant to Kanamycin ATCC 35827.

For `CC(C)(C)Nc1n[n+]([O-])c2ccccc2[n+]1[O-]` [Compound 8c, 3-(tert-butylamino)benzo[e][1,2,4]triazine 1,4-dioxide], the MIC in experiment [1] (setting [7]) came out at 1.2 µg/mL (≈ 5.12 µM); in experiment [2] (setting [8]), 1.2 µg/mL (≈ 5.12 µM); in experiment [3] (setting [9]), 1.2 µg/mL (≈ 5.12 µM); in experiment [4], 2.5 µg/mL (≈ 10.7 µM).
As to `CCNc1n[n+]([O-])c2cccc(C)c2[n+]1[O-]` [Compound 15ea, Ethyl-(5-methyl-1,4-dioxy-benzo[1,2,4]triazin-3-yl)-amine], in experiment [1] (Table 5), the “MIC, Mtb strain resistant to Streptomycin ATCC 35820” value is 0.16 µg/mL (≈ 0.727 µM). The “MIC, Mtb strain resistant to P-aminosalicyclic acid ATCC 35821” value in experiment [2] amounted to 0.31 µg/mL (≈ 1.41 µM). In addition, in experiment [5] (Table 5), the “MIC, Mtb strain resistant to Isoniazid ATCC 35822” value was 0.62 µg/mL (≈ 2.82 µM). For the same compound, the “MIC, Mtb strain resistant to Kanamycin ATCC 35827” value in experiment [6] (Table 5) was determined as 0.62 µg/mL (≈ 2.82 µM). In experiment [3], the “MIC, Mtb strain resistant to Ethionamide ATCC 35830” value came out at 0.31 µg/mL (≈ 1.41 µM). Moreover, in experiment [4], the “MIC, Mtb strain resistant to Ethambutol ATCC 35837” value was 0.62 µg/mL (≈ 2.82 µM).
Consider `CCNc1n[n+]([O-])c2cc3c(cc2[n+]1[O-])CCC3` [Compound 15fa, 3-(ethylamino)-7,8-dihydro-6H-indeno[5,6-e][1,2,4]triazine 1,4-dioxide], for which the MIC turned out to be 0.63 µg/mL (≈ 2.56 µM) in experiment [1] (setting [7]); 1.2 µg/mL (≈ 4.87 µM) in experiment [2] (setting [8]); 2.5 µg/mL (≈ 10.2 µM) in experiment [5] (setting [10]); 1.2 µg/mL (≈ 4.87 µM) in experiment [6] (setting [11]); 1.2 µg/mL (≈ 4.87 µM) in experiment [3] (setting [9]); 1.2 µg/mL (≈ 4.87 µM) in experiment [4].
Turning to `[O-][n+]1nc(NC2CCC2)[n+]([O-])c2cc3c(cc21)CCC3` [Compound 15fd, Cyclobutyl-(5,8-dioxy-2,3-dihydro-1H-5,6,8-triaza-cyclopenta[b]naphthalen-7-yl)-amine], in experiment [1] (Table 5), the “MIC, Mtb strain resistant to Streptomycin ATCC 35820” value was 0.31 µg/mL (≈ 1.14 µM). Moreover, the “MIC, Mtb strain resistant to P-aminosalicyclic acid ATCC 35821” value in experiment [2] was 0.62 µg/mL (≈ 2.28 µM). In addition, the “MIC, Mtb strain resistant to Isoniazid ATCC 35822” value in experiment [5] (Table 5) is 1.2 µg/mL (≈ 4.41 µM). Moreover, the “MIC, Mtb strain resistant to Kanamycin ATCC 35827” value in experiment [6] (Table 5) amounted to 1.2 µg/mL (≈ 4.41 µM). The “MIC, Mtb strain resistant to Ethionamide ATCC 35830” value in experiment [3] was determined as 0.62 µg/mL (≈ 2.28 µM). Besides, in experiment [4], the “MIC, Mtb strain resistant to Ethambutol ATCC 35837” value is 0.62 µg/mL (≈ 2.28 µM).
In the case of `CCNc1n[n+]([O-])c2cc(C)c(OC)cc2[n+]1[O-]` [Compound 15ga, 3-(ethylamino)-6-methoxy-7-methylbenzo[e][1,2,4]triazine 1,4-dioxide], the MIC in experiment [1] (setting [7]), in experiment [2] (setting [8]), in experiment [5] (setting [10]), in experiment [6] (setting [11]), in experiment [3] (setting [9]) and in experiment [4] was 1.2 µg/mL (≈ 4.8 µM) each time.
On to `[O-][n+]1nc(N2CCCC2)[n+]([O-])c2ccccc21` [Compound 17q, 3-(pyrrolidin-1-yl)benzo[e][1,2,4]triazine 1,4-dioxide], for which the MIC in experiment [1] (setting [7]) stood at 0.02 µg/mL (≈ 0.0861 µM); in experiment [2] (setting [8]), 0.62 µg/mL (≈ 2.67 µM); in experiment [3] (setting [9]) it was 0.31 µg/mL (≈ 1.33 µM); in experiment [4] it was 0.31 µg/mL (≈ 1.33 µM).
For the compound `[O-][n+]1nc(N2CCCC2)[n+]([O-])c2cc3c(cc21)CCC3` [Compound 20q, 3-(pyrrolidin-1-yl)-7,8-dihydro-6H-indeno[5,6-e][1,2,4]triazine 1,4-dioxide], the MIC stood at 0.16 µg/mL (≈ 0.588 µM) in experiment [1] (ATCC35820, 168 h, Table 5, read-out: MIC, Mtb strain resistant to Streptomycin ATCC 35820); 0.31 µg/mL (≈ 1.14 µM) in experiment [5] (ATCC35822, 168 h, Table 5, read-out: MIC, Mtb strain resistant to Isoniazid ATCC 35822); 0.63 µg/mL (≈ 2.31 µM) in experiment [6] (ATCC35827, 168 h, Table 5, read-out: MIC, Mtb strain resistant to Kanamycin ATCC 35827).
For `[O-][n+]1nc(N2CCCCC2)[n+]([O-])c2cc3c(cc21)CCC3` [Compound 20r, 3-(piperidin-1-yl)-7,8-dihydro-6H-indeno[5,6-e][1,2,4]triazine 1,4-dioxide], the MIC in experiment [1] (setting [7]) was determined as 0.15 µg/mL (≈ 0.524 µM); in experiment [2] (setting [8]) it was 0.31 µg/mL (≈ 1.08 µM); in experiment [3] (setting [9]), 0.31 µg/mL (≈ 1.08 µM); in experiment [4] it was 0.31 µg/mL (≈ 1.08 µM).
Consider `CN(C)c1n[n+]([O-])c2cc3c(cc2[n+]1[O-])CCC3` [Compound 20s, 3-(dimethylamino)-7,8-dihydro-6H-indeno[5,6-e][1,2,4]triazine 1,4-dioxide], for which the MIC in experiment [1] (setting [7]) was under 0.07 µg/mL; in experiment [2] (setting [8]), 0.15 µg/mL (≈ 0.609 µM); in experiment [3] (setting [9]), 0.15 µg/mL (≈ 0.609 µM); in experiment [4] it was 0.31 µg/mL (≈ 1.26 µM).
Take `CN(Cc1ccccc1)c1n[n+]([O-])c2cc3c(cc2[n+]1[O-])CCC3` [Compound 20t, 3-(benzyl(methyl)amino)-7,8-dihydro-6H-indeno[5,6-e][1,2,4]triazine 1,4-dioxide]: the MIC in experiment [1] (setting [7]) is under 0.07 µg/mL; in experiment [2] (setting [8]), 0.07 µg/mL (≈ 0.217 µM); in experiment [3] (setting [9]), 0.07 µg/mL (≈ 0.217 µM); in experiment [4] it was 0.15 µg/mL (≈ 0.465 µM).
As for `CN(CCc1ccccc1)c1n[n+]([O-])c2cc3c(cc2[n+]1[O-])CCC3` [Compound 20u, 3-(methyl(phenethyl)amino)-7,8-dihydro-6H-indeno[5,6-e][1,2,4]triazine 1,4-dioxide], the MIC in experiment [1] (setting [7]) is under 0.07 µg/mL; in experiment [2] (setting [8]) it was 0.15 µg/mL (≈ 0.446 µM); in experiment [3] (setting [9]), 0.15 µg/mL (≈ 0.446 µM); in experiment [4] it was 0.31 µg/mL (≈ 0.922 µM).
In the case of `CC1CCCCN1c1n[n+]([O-])c2cc3c(cc2[n+]1[O-])CCC3` (stereo not drawn) [Compound 20w, 3-(2-methylpiperidin-1-yl)-7,8-dihydro-6H-indeno[5,6-e][1,2,4]triazine 1,4-dioxide], the MIC in experiment [1] (setting [7]) was 0.31 µg/mL (≈ 1.03 µM); in experiment [2] (setting [8]), 0.62 µg/mL (≈ 2.06 µM); in experiment [3] (setting [9]) it was 0.31 µg/mL (≈ 1.03 µM); in experiment [4], 0.62 µg/mL (≈ 2.06 µM).
Turning to `CC(C)(C)Nc1n[n+]([O-])c2ccccc2[n+]1[O-]` [SRI-003356], the MIC is 1.25 µg/mL (≈ 5.34 µM) in experiment [1] (ATCC35820, read-out: Activity against Mtb strain resistant to Streptomycin ATCC 35820); 1.25 µg/mL (≈ 5.34 µM) in experiment [2] (ATCC35821, read-out: Activity against Mtb strain resistant to P-aminosalicyclic acid ATCC 35821); 2.5 µg/mL (≈ 10.7 µM) in experiment [5] (ATCC35822, read-out: Activity against Mtb strain resistant to Isoniazid ATCC 35822); 2.5 µg/mL (≈ 10.7 µM) in experiment [6] (ATCC35827, read-out: Activity against Mtb strain resistant to Kanamycin ATCC 35827); 1.25 µg/mL (≈ 5.34 µM) in experiment [3] (ATCC35830, read-out: Activity against Mtb strain resistant to Ethionamide ATCC 35830).
